# Experimental data taken from PMC4191898 (Bioorganic & medicinal chemistry letters, 2014).
# System: DU-145 cells
# Test: antiproliferative activity against DU-145 cells
# Assay type: cell-based, human
# Conditions: not given
GI50 values (range in words),Structure (SMILES),antiproliferative activity (in words)
,C#CCNC(=O)N1CCC(c2nc(-c3ccc(F)cc3)no2)CC1 [Compound 8k],no activity was detected
,O=C(N1CCC(c2nc(-c3ccc(F)cc3)no2)CC1)N1CCCc2ccccc21 [Compound 8i],complete loss
,CN(Cc1ccco1)C(=O)N1CCC(c2nc(-c3ccc(F)cc3)no2)CC1 [Compound 8a],markedly lower
,COC(=O)CNC(=O)N1CCC(c2nc(-c3ccc(F)cc3)no2)CC1 [Compound 8e],no activity was detected
submicromolar range,O=C(NCc1ccsc1)N1CCC(c2nc(-c3ccc(F)cc3)no2)CC1 [Compound 8g],
submicromolar range,O=C(NCc1ccccc1)N1CCC(c2nc(COc3ccccc3)no2)CC1 [Compound 11d],
,O=C(NCc1ccsc1)N1CCCCC1c1nc(Cc2ccccc2)no1 (centres unmarked) [Compound 14],completely eliminated
,CCCCNC(=O)N1CCC(c2nc(-c3ccc(F)cc3)no2)CC1 [Compound 8b],no activity was detected
,O=C(NCc1ccsc1)N1CCCC1c1nc(Cc2ccccc2)no1 (centres unmarked) [Compound 16],completely eliminated
,O=C(NCc1ccsc1)N1CCC(c2nc(Cc3ccccc3)no2)C1 (centres unmarked) [Compound 15],drastically reduced
,O=C(NCc1ccsc1)N1CCCC(c2nc(Cc3ccccc3)no2)C1 (centres unmarked) [Compound 13],completely eliminated
submicromolar range,Cc1cc(CNC(=O)N2CCC(c3nc(-c4ccc(F)cc4)no3)CC2)nn1C [Compound 8o],
submicromolar range,O=C(NCc1ccccc1)N1CCC(c2nc(Cc3ccccc3)no2)CC1 [Compound 11b],
,O=C(N1CCC(c2nc(-c3ccc(F)cc3)no2)CC1)N1CCc2ccccc2C1 [Compound 8j],markedly lower

# Same assay, conditions: means of three experiments ± standard deviation, Inactive = <20% DU-145 growth inhibition at 50 μM
row,GI50,Structure (SMILES)
1,Inactive,C#CCNC(=O)N1CCC(c2nc(-c3ccc(F)cc3)no2)CC1 [Compound 8k]
2,Inactive,Cc1noc(C2CCN(C(=O)NCc3ccccc3)CC2)n1 [Compound 11j]
3,Inactive,O=C(N1CCC(c2nc(-c3ccc(F)cc3)no2)CC1)N1CCCc2ccccc21 [Compound 8i]
4,Inactive,COC(=O)CNC(=O)N1CCC(c2nc(-c3ccc(F)cc3)no2)CC1 [Compound 8e]
5,Inactive,O=C(N1CCOCC1)N1CCC(c2nc(-c3ccc(F)cc3)no2)CC1 [Compound 8n]
6,Inactive,CC(C)(C)NC(=O)N1CCC(c2nc(-c3ccc(F)cc3)no2)CC1 [Compound 8q]
7,Inactive,O=C(NCC1CC1)N1CCC(c2nc(-c3ccc(F)cc3)no2)CC1 [Compound 8s]
8,Inactive,COCCNC(=O)N1CCC(c2nc(-c3ccc(F)cc3)no2)CC1 [Compound 8r]
9,Inactive,O=C(N1CCC(c2nc(-c3ccc(F)cc3)no2)CC1)N1CCc2ccccc21 [Compound 8l]
10,Inactive,CCCCNC(=O)N1CCC(c2nc(-c3ccc(F)cc3)no2)CC1 [Compound 8b]
11,Inactive,CC(C)Cc1noc(C2CCN(C(=O)NCc3ccccc3)CC2)n1 [Compound 11i]
12,Inactive,O=C(N1CCCCC1)N1CCC(c2nc(-c3ccc(F)cc3)no2)CC1 [Compound 8m]
